Reference: patent US10155810B2, “Provasopressin antagonists and uses thereof” (Woomera Therapeutics, Inc., priority 2011, dated 2018)

Test system: recurrent H82 SCLC cells xenografts
Test: H82 SCLC xenograft, combination with cyclophosphamide
Format: in vivo, nu/nu mice
Conditions: cyclophosphamide 50 mg/kg daily for 3 days, then 100 μg MAG-1 daily for 11 days, i.p.
Description: Three groups of nu/nu mice (8 animal per group) were injected with 1×10^7 recurrent H82 SCLC cells per mouse s.c. on the right flank, and the tumors were allowed to grow to an average of about 300 mm^3 in about 14 days. All treatment was carried out by injection intraperitoneally.

Q: With `O=P1(N(CCCl)CCCl)NCCCO1` (stereo not shown) [cyclophosphamide] as the molecule, how does the “efficacy of combined therapy on tumor growth” value read?
A: synergistic efficacy
